Data on 26 compounds can be found in ChEMBL document CHEMBL1131176, “Structure-based enhancement of boronic acid-based inhibitors of AmpC beta-lactamase” (J Med Chem, 1998).

A value given as a limit tells only on which side of the number the result lay.

Broadly, the Ki is a dissociation constant, usually derived from enzyme kinetics or from competition with a known ligand. What is called IC50 is the concentration that inhibits the measured activity by half. Low values mean inhibition by little substance, high ones a need for much substance.

Test [1] deals with T1, Beta-lactamase (Escherichia coli K-12, UniProt P00811). The test is described as follows: Inhibitory activity against Escherichia coli AmpC beta-lactamase.
T1 sequence (P00811 whole entry): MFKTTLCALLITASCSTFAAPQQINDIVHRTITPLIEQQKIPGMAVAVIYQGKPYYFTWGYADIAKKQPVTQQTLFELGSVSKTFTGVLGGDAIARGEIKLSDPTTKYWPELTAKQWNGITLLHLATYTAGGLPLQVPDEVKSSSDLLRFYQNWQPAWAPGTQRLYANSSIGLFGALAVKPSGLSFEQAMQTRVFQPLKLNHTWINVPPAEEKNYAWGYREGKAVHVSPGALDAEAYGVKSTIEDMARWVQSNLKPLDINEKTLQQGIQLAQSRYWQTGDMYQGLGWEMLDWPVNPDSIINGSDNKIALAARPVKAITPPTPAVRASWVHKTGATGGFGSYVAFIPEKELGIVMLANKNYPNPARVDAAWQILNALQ
Test [2] addresses T1, Beta-lactamase. The test is described as follows: Compound was tested for its specificity against AmpC beta-lactamase.
Another test addresses Chymotrypsinogen A (Bos taurus, UniProt P00766). Kind of test: Compound was tested for its specificity against alpha-chymotrypsin.
For the next test, the species on record is Homo sapiens. Kind of test: Compound was tested for its specificity against Elastase.

On Beta-lactamase [1], `OB(O)c1ccc(-c2ccc(B(O)O)cc2)cc1` yielded a Ki of 0.2 µM.
The same measure, in the same setting: under `CC(=O)c1ccc(B(O)O)s1` stands 1.6 µM.
Same read-out and setting: the value for `O=Cc1ccccc1B(O)O` was 25.3 µM; that for `O=Cc1ccc(B(O)O)cc1` was 2.9 µM; that for `OB(O)c1cc2ccccc2c2ccccc12` was 7 µM.
Consider `OB(O)[C@@H]1CCOC1`, for which the IC50 is 5 µM against Beta-lactamase [2], greater than 200 µM against Chymotrypsinogen A and greater than 200 µM in the test listed under Homo sapiens.
Take `OB(O)c1ccc(B(O)O)cc1`: the Ki on Beta-lactamase [1] came out at 3.9 µM.
For the compound `OB(O)c1cccs1`, the figures for the half-inhibitory concentration (IC50) at Chymotrypsinogen A and in the test filed under Homo sapiens were greater than 200 µM and 200 µM, respectively.
For `OB(O)c1ccco1`, the Ki on Beta-lactamase [1] was greater than 100 µM.
On to `OB(O)c1ccc(Cl)s1`, for which the figures for the IC50 against Beta-lactamase [2], against Chymotrypsinogen A and in the test filed under Homo sapiens were 2 µM, greater than 100 µM and 200 µM, respectively. The same compound registered a Ki on Beta-lactamase [1] of 0.41 µM.
As to `OB(O)c1cc2ccccc2o1`, the IC50 against Beta-lactamase [2] amounted to 0.6 µM; on Chymotrypsinogen A it was 14 µM. In addition, the Ki on Beta-lactamase [1] was 0.22 µM.
At Beta-lactamase [1], `OB(O)c1ccc(C(F)(F)F)cc1` yielded a Ki of 3 µM.
Take `OB(O)c1ccc(Br)cc1`: the Ki on Beta-lactamase [1] stood at 3.6 µM.
The compound `COc1ccc(B(O)O)cc1` yielded a Ki at Beta-lactamase [1] of 5.9 µM.
`O=Cc1ccsc1B(O)O` had a Ki at Beta-lactamase [1] of 3.8 µM.
Regarding `OB(O)c1cccc(C(F)(F)F)c1`, the IC50 against Beta-lactamase [2] was 5 µM; on Chymotrypsinogen A, greater than 200 µM; in the test filed under Homo sapiens it was greater than 200 µM. The Ki on Beta-lactamase [1] came to 1.1 µM.
As for `OB(O)c1ccsc1`, affinity on Beta-lactamase [1] was put at a Ki of 22.1 µM.
Take `OB(O)c1ccc(F)cc1`: at Beta-lactamase [1], the affinity, expressed as Ki, was 6.4 µM.
With `OB(O)c1cc2ccccc2s1`, at Chymotrypsinogen A, half-maximal inhibition (IC50) was put at 5 µM.
Compound `OB(O)c1cccc2ccccc12` came in with a Ki on Beta-lactamase [1] of 12 µM.
As for `O=C(O)c1cccc(B(O)O)c1`, on Beta-lactamase [1], the inhibitory constant (Ki) was greater than 100 µM.
Regarding `CCCCB(O)O` [BUTYL BORONIC ACID], the Ki at Beta-lactamase [1] was greater than 100 µM.
On the same count and under the same terms, under `OB(c1ccccc1)c1ccccc1` [DIPHENYL BORINIC ACID] stands greater than 100 µM.
Take `CN(C)c1cccc2c(S(=O)(=O)Nc3cccc(B(O)O)c3)cccc12` [M(DANSYLAMIDOPHENYL)BORONIC ACID]: the results for the IC50 against Beta-lactamase [2], at Chymotrypsinogen A and in the test listed under Homo sapiens were 5 µM, greater than 100 µM and 50 µM, respectively. The inhibition constant Ki on Beta-lactamase [1] stood at 1.3 µM.
`OB(O)c1ccccc1` [PHENYLBORONIC ACID] gave a Ki at Beta-lactamase [1] of 10.5 µM.
Regarding `Cc1ccc(B(O)O)cc1` [TOLYL BORONIC ACID], the Ki on Beta-lactamase [1] is 5.4 µM.
